The text below walks through data of US12565505B2, “mTORC modulators and uses thereof” (Aeovian Pharmaceuticals, Inc., priority 2019, dated 2026).

One assay deals with T1, mTORC1 (Homo sapiens, UniProt P42345+P62942).
T1 construct: endogenous in cells; host or cells: PC3 cells (human prostate adenocarcinoma)
The assay is described as follows: Inhibition assay for mTORC1: phosphorylation of pS6K at Thr389, AlphaLISA SureFire in PC3 cells. It is filed as cell-based. The following applies: PC3 cells, 24 hours treatment, pS6K Thr389; analogs substituted at C40 and C16 (C16 diastereomer mixtures not isolated); read-out: pIC50 mTORC1 (converted). The method, then:
The IC50s of the inhibition of mTORC1 and mTORC2 were determined in vitro by determining the phosphorylation of pS6K at position Thr389 (mTORC1 inhibition) and pAkt at Ser473 (mTORC2 inhibition). In vitro studies were performed with AiphaLISA® technology using PC3 cells (Prostate Adenocarcinoma; Human (Homo sapiens)). The cells were seeded in 96 well plates and were treated for 24 hours with the different compounds. […] All analysis were performed using GraphPad Prism 7.0 (GraphPad Software, San Diego, USA).
Tables 5-7 include PIC50 values for mTORC1 of selected compounds; with compounds having an PIC50 for mTORC1 of >9.5 as A, 8.5 to 9.5 as B, and less than 8.5 as C.

The next assay concerns the target T2, mTORC2 (Homo sapiens, UniProt P42345+P62942).
T2 construct: endogenous in cells; host or cells: PC3 cells (human prostate adenocarcinoma)
The assay is described as follows: Inhibition assay for mTORC2: phosphorylation of pAkt at Ser473, AlphaLISA SureFire in PC3 cells. It is filed as cell-based. The following applies: PC3 cells, 24 hours treatment, analogs substituted at C40 and C16 (C16 diastereomer mixtures not isolated), read-out: pIC50 mTORC2 (converted). The procedure:
The IC50s of the inhibition of mTORC1 and mTORC2 were determined in vitro by determining the phosphorylation of pS6K at position Thr389 (mTORC1 inhibition) and pAkt at Ser473 (mTORC2 inhibition). In vitro studies were performed with AiphaLISA® technology using PC3 cells (Prostate Adenocarcinoma; Human (Homo sapiens)). The cells were seeded in 96 well plates and were treated for 24 hours with the different compounds. […] All analysis were performed using GraphPad Prism 7.0 (GraphPad Software, San Diego, USA). […]
For orientation: Bead proximity is the source of the signal in Alpha formats.

A value given as a limit tells only on which side of the number the result lay.

As for `CO[C@@H]1C[C@H](C[C@@H](C)[C@@H]2CC(=O)[C@H](C)/C=C(\C)[C@@H](O)[C@@H](OC)C(=O)[C@H](C)C[C@H](C)/C=C/C=C/C=C(\C)C(OCCc3ccccc3)C[C@@H]3CC[C@@H](C)[C@@](O)(O3)C(=O)C(=O)N3CCCCC3C(=O)O2)CC[C@H]1OC(=O)NCCO` (stereo partly drawn) [Compound 111, [(1R,2R,4S)-4-[(2R)-2-[(1R,9S,12S,15R,16E,18R,19R,21R,23S,24E,26E,28E,32S,35R)-1,18-dihydroxy-19-methoxy-15,17,21,23,29,35-hexamethyl-2,3,10,14,20-pentaoxo-30-(2-phenylethoxy)-11,36-dioxa-4-azatricyclo[30.3.1.0^4,9]hexatriaconta-16,24,26,28-tetraen-12-yl]propyl]-2-methoxy-cyclohexyl] N-(2-hydroxyethyl)carbamate], the IC50 at mTORC1 is below 0.316 nM; on mTORC2 it was below 1000 nM.

`CO[C@@H]1C[C@H](C[C@@H](C)[C@@H]2CC(=O)[C@H](C)/C=C(\C)[C@@H](O)[C@@H](OC)C(=O)[C@H](C)C[C@H](C)/C=C/C=C/C=C(\C)C(OCCCCO)C[C@@H]3CC[C@@H](C)[C@@](O)(O3)C(=O)C(=O)N3CCCC[C@H]3C(=O)O2)CC[C@H]1OCCCO` (mixture of isomers) [Compound 68]: the IC50 on mTORC1 is below 0.316 nM; at mTORC2 it was 1000 to 10000 nM.

As for `COCCOC1C[C@@H]2CC[C@@H](C)[C@@](O)(O2)C(=O)C(=O)N2CCCCC2C(=O)O[C@H]([C@H](C)C[C@@H]2CC[C@@H](OC(=O)NCCN3CCOCC3)[C@H](OC)C2)CC(=O)[C@H](C)/C=C(\C)[C@@H](O)[C@@H](OC)C(=O)[C@H](C)C[C@H](C)/C=C/C=C/C=C/1C` (stereo partly shown) [Compound 30], the IC50 at mTORC1 was below 0.316 nM; at mTORC2, 1000 to 10000 nM.

For `CO[C@@H]1CC[C@@H](C[C@@H](C)[C@@H]2CC(=O)[C@H](C)/C=C(\C)[C@@H](O)[C@@H](OC)C(=O)[C@H](C)C[C@H](C)/C=C/C=C/C=C(\C)C(OCCCCO)C[C@@H]3CC[C@@H](C)[C@@](O)(O3)C(=O)C(=O)N3CCCCC3C(=O)O2)C[C@H]1OC` (stereo partly shown) [Compound 24], the IC50 at mTORC1 is below 0.316 nM; at mTORC2 it was above 10000 nM.

For `CO[C@@H]1C[C@H](C[C@@H](C)[C@@H]2CC(=O)[C@H](C)/C=C(\C)[C@@H](O)[C@@H](OC)C(=O)[C@H](C)C[C@H](C)/C=C/C=C/C=C(\C)C(OCCc3ccccc3)C[C@@H]3CC[C@@H](C)[C@@](O)(O3)C(=O)C(=O)N3CCCCC3C(=O)O2)CC[C@H]1OC(=O)N(C)CCCN(C)C` (stereo partly shown) [Compound 95], the IC50 on mTORC1 is below 0.316 nM; at mTORC2, below 1000 nM.

Regarding `COCCOC1C[C@@H]2CC[C@@H](C)[C@@](O)(O2)C(=O)C(=O)N2CCCCC2C(=O)O[C@H]([C@H](C)C[C@@H]2CC[C@@H](OCCN3CCCCC3)[C@H](OC)C2)CC(=O)[C@H](C)/C=C(\C)[C@@H](O)[C@@H](OC)C(=O)[C@H](C)C[C@H](C)/C=C/C=C/C=C/1C` (stereo partly shown) [Compound 51], the values for the IC50 on mTORC1 and on mTORC2 were below 0.316 nM and 1000 to 10000 nM, respectively.

For the molecule `CO[C@@H]1C[C@H](C[C@@H](C)[C@@H]2CC(=O)[C@H](C)/C=C(\C)[C@@H](O)[C@@H](OC)C(=O)[C@H](C)C[C@H](C)/C=C/C=C/C=C(\C)C(OCCO)C[C@@H]3CC[C@@H](C)[C@@](O)(O3)C(=O)C(=O)N3CCCCC3C(=O)O2)CC[C@H]1OCCCCN1CCOCC1` (stereo partly shown) [Compound 50], the IC50 on mTORC1 is below 0.316 nM; at mTORC2, 1000 to 10000 nM.

In the case of `CO[C@@H]1C[C@H](C[C@@H](C)[C@@H]2CC(=O)[C@H](C)/C=C(\C)[C@@H](O)[C@@H](OC)C(=O)[C@H](C)C[C@H](C)/C=C/C=C/C=C(\C)C(OCCc3ccccc3)C[C@@H]3CC[C@@H](C)[C@@](O)(O3)C(=O)C(=O)N3CCCCC3C(=O)O2)CC[C@H]1OCCCN1CCCCC1` (stereo partly shown) [Compound 101], the IC50 is below 0.316 nM on mTORC1 and below 1000 nM at mTORC2.

As for `CO[C@@H]1C[C@H](C[C@@H](C)[C@@H]2CC(=O)[C@H](C)/C=C(\C)[C@@H](O)[C@@H](OC)C(=O)[C@H](C)C[C@H](C)/C=C/C=C/C=C(\C)C(OCCO)C[C@@H]3CC[C@@H](C)[C@@](O)(O3)C(=O)C(=O)N3CCCCC3C(=O)O2)CC[C@H]1OCCCN1CCOCC1` (stereo partly drawn) [Compound 55, (1R,9S,12SR,15R,16E,18R,19R,21R,23S,24E,26E,28E,32S,35R)-1,18-dihydroxy-30-(2-hydroxyethoxy)-19-methoxy-12-[(1R)-2-[(1S,3R,4R)-3-methoxy-4-(3-morpholinopropoxy)cyclohexyl]-1-methyl-ethyl]-15,17,21,23,29,35-hexamethyl-11,36-dioxa-4-azatricyclo[30.3.1.0^4,9]hexatriaconta-16,24,26,28-tetraene-2,3,10,14,20-pentone], the IC50 at mTORC1 is below 0.316 nM; on mTORC2 it was 1000 to 10000 nM.

Consider `CO[C@@H]1C[C@H](C[C@@H](C)[C@@H]2CC(=O)[C@H](C)/C=C(\C)[C@@H](O)[C@@H](OC)C(=O)[C@H](C)C[C@H](C)/C=C/C=C/C=C(\C)C(OCCc3ccccc3)C[C@@H]3CC[C@@H](C)[C@@](O)(O3)C(=O)C(=O)N3CCCCC3C(=O)O2)CC[C@H]1OCCCN1CCN(C)CC1` (stereo partly shown) [Compound 97], for which the IC50 was below 0.316 nM at mTORC1 and below 1000 nM at mTORC2.

With `COCCOC1C[C@@H]2CC[C@@H](C)[C@@](O)(O2)C(=O)C(=O)N2CCCCC2C(=O)O[C@H]([C@H](C)C[C@@H]2CC[C@@H](OCCCCN3CCOCC3)[C@H](OC)C2)CC(=O)[C@H](C)/C=C(\C)[C@@H](O)[C@@H](OC)C(=O)[C@H](C)C[C@H](C)/C=C/C=C/C=C/1C` (stereo partly shown) [Compound 56], the values for the IC50 on mTORC1 and at mTORC2 were below 0.316 nM and 1000 to 10000 nM, respectively.

With `CO[C@@H]1CC[C@@H](C[C@@H](C)[C@@H]2CC(=O)[C@H](C)/C=C(\C)[C@@H](O)[C@@H](OC)C(=O)[C@H](C)C[C@H](C)/C=C/C=C/C=C(\C)C(OCCCO)C[C@@H]3CC[C@@H](C)[C@@](O)(O3)C(=O)C(=O)N3CCCCC3C(=O)O2)C[C@H]1OC` (stereo partly shown) [Compound 19], the results for the IC50 at mTORC1 and at mTORC2 were below 0.316 nM and above 10000 nM, respectively.

Consider `COCCCCOC1C[C@@H]2CC[C@@H](C)[C@@](O)(O2)C(=O)C(=O)N2CCCCC2C(=O)O[C@H]([C@H](C)C[C@@H]2CC[C@@H](OCCCN3CCOCC3)[C@H](OC)C2)CC(=O)[C@H](C)/C=C(\C)[C@@H](O)[C@@H](OC)C(=O)[C@H](C)C[C@H](C)/C=C/C=C/C=C/1C` (stereo partly shown) [Compound 65], for which the IC50 on mTORC1 is below 0.316 nM; on mTORC2 it was 1000 to 10000 nM.

Take `CO[C@@H]1C[C@H](C[C@@H](C)[C@@H]2CC(=O)[C@H](C)/C=C(\C)[C@@H](O)[C@@H](OC)C(=O)[C@H](C)C[C@H](C)/C=C/C=C/C=C(\C)C(OCCO)C[C@@H]3CC[C@@H](C)[C@@](O)(O3)C(=O)C(=O)N3CCCCC3C(=O)O2)CC[C@H]1OCCCN1CCOC(C)(C)C1` (stereo partly shown) [Compound 12]: the IC50 at mTORC1 was below 0.316 nM; at mTORC2, above 10000 nM.

Turning to `CO[C@@H]1C[C@H](C[C@@H](C)[C@@H]2CC(=O)[C@H](C)/C=C(\C)[C@@H](O)[C@@H](OC)C(=O)[C@H](C)C[C@H](C)/C=C/C=C/C=C(\C)C(OCCc3ccccc3)C[C@@H]3CC[C@@H](C)[C@@](O)(O3)C(=O)C(=O)N3CCCCC3C(=O)O2)CC[C@H]1OC(=O)NCCn1cnnn1` (stereo partly shown) [Compound 114], the IC50 at mTORC1 is below 0.316 nM; at mTORC2 it was below 1000 nM.

Take `CO[C@@H]1C[C@H](C[C@@H](C)[C@@H]2CC(=O)[C@H](C)/C=C(\C)[C@@H](O)[C@@H](OC)C(=O)[C@H](C)C[C@H](C)/C=C/C=C/C=C(\C)C(OCCc3ccccc3)C[C@@H]3CC[C@@H](C)[C@@](O)(O3)C(=O)C(=O)N3CCCCC3C(=O)O2)CC[C@H]1OC(=O)N(C)CCO` (stereo partly shown) [Compound 105]: the IC50 on mTORC1 is below 0.316 nM; on mTORC2 it was below 1000 nM.

Regarding `CO[C@@H]1C[C@H](C[C@@H](C)[C@@H]2CC(=O)[C@H](C)/C=C(\C)[C@@H](O)[C@@H](OC)C(=O)[C@H](C)C[C@H](C)/C=C/C=C/C=C(\C)C(OCCCO)C[C@@H]3CC[C@@H](C)[C@@](O)(O3)C(=O)C(=O)N3CCCCC3C(=O)O2)CC[C@H]1OCCO` (stereo partly shown) [Compound 15], the IC50 was below 0.316 nM on mTORC1 and above 10000 nM on mTORC2.

For `COCCOC1C[C@@H]2CC[C@@H](C)[C@@](O)(O2)C(=O)C(=O)N2CCCCC2C(=O)O[C@H]([C@H](C)C[C@@H]2CC[C@@H](OCCN3CCN(C)CC3)[C@H](OC)C2)CC(=O)[C@H](C)/C=C(\C)[C@@H](O)[C@@H](OC)C(=O)[C@H](C)C[C@H](C)/C=C/C=C/C=C/1C` (stereo partly shown) [Compound 47], the IC50 at mTORC1 is below 0.316 nM; on mTORC2, 1000 to 10000 nM.

For `CO[C@@H]1C[C@H](C[C@@H](C)[C@@H]2CC(=O)[C@H](C)/C=C(\C)[C@@H](O)[C@@H](OC)C(=O)[C@H](C)C[C@H](C)/C=C/C=C/C=C(\C)C(OCCO)C[C@@H]3CC[C@@H](C)[C@@](O)(O3)C(=O)C(=O)N3CCCCC3C(=O)O2)CC[C@H]1OC(=O)N(C)CCCN(C)C` (stereo partly shown) [Compound 77], the values for the IC50 on mTORC1 and at mTORC2 were 0.316 to 3.16 nM and above 10000 nM, respectively.

As to `CO[C@@H]1C[C@H](C[C@@H](C)[C@@H]2CC(=O)[C@H](C)/C=C(\C)[C@@H](O)[C@@H](OC)C(=O)[C@H](C)C[C@H](C)/C=C/C=C/C=C(\C)C(OCCc3ccccc3)C[C@@H]3CC[C@@H](C)[C@@](O)(O3)C(=O)C(=O)N3CCCCC3C(=O)O2)CC[C@H]1OCCCN1CCOCC1` (stereo partly shown) [Compound 108], the results for the IC50 on mTORC1 and at mTORC2 were below 0.316 nM and below 1000 nM, respectively.
